Assay results taken from PubChem BioAssay AID1963983 (Molecular Pharmacology Branch, DTP, NCI, 2024).
Each block holds one molecule with its values, some of them ahead of it.

Test system: 186277-243-T-J2-PDC multi-cell spheroid viability
Test: Anticancer human tumor 186277-243-T-J2-PDC patient-derived colon adenocarcinoma cell line growth inhibition [PI3K]
Details: for viability, T/C: stronger effect = lower value
Procedure, shortened: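 Complex 3D spheroids (cancer cells + endothelial HUVEC + mesenchymal stem cells); drug pairs of targeted agent x inavolisib/alpelisib/duvelisib/copanlisib; half-log series from ~Cmax, max 10 microM if Cmax unknown; endpoint viability.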

[1] = curve of first compound, second compound 0.0316 µM
[2] = curve of first compound, second compound 0.1 µM
[3] = curve of first compound, second compound 0.316 µM
[4] = curve of first compound, second compound 1 µM
[5] = curve of first compound, second compound 3.16 µM
[6] = curve of first compound, second compound 10 µM
[7] = second compound 0.0316 µM, first compound 0.0316 µM
[8] = second compound 0.0316 µM, first compound 0.1 µM
[9] = second compound 0.0316 µM, first compound 0.316 µM
[10] = second compound 0.0316 µM, first compound 1 µM
[11] = second compound 0.0316 µM, first compound 3.16 µM
[12] = second compound 0.0316 µM, first compound 10 µM
[13] = second compound 0.1 µM, first compound 0.0316 µM
[14] = second compound 0.1 µM, first compound 0.1 µM
[15] = second compound 0.1 µM, first compound 0.316 µM
[16] = second compound 0.1 µM, first compound 1 µM
[17] = second compound 0.1 µM, first compound 3.16 µM
[18] = second compound 0.1 µM, first compound 10 µM
[19] = second compound 0.316 µM, first compound 0.0316 µM
[20] = second compound 0.316 µM, first compound 0.1 µM
[21] = second compound 0.316 µM, first compound 0.316 µM
[22] = second compound 0.316 µM, first compound 1 µM
[23] = second compound 0.316 µM, first compound 3.16 µM
[24] = second compound 0.316 µM, first compound 10 µM
[25] = second compound 1 µM, first compound 0.0316 µM
[26] = second compound 1 µM, first compound 0.1 µM
[27] = second compound 1 µM, first compound 0.316 µM
[28] = second compound 1 µM, first compound 1 µM
[29] = second compound 1 µM, first compound 3.16 µM
[30] = second compound 1 µM, first compound 10 µM
[31] = second compound 3.16 µM, first compound 0.0316 µM
[32] = second compound 3.16 µM, first compound 0.1 µM
[33] = second compound 3.16 µM, first compound 0.316 µM
[34] = second compound 3.16 µM, first compound 1 µM
[35] = second compound 3.16 µM, first compound 3.16 µM
[36] = second compound 3.16 µM, first compound 10 µM
[37] = second compound 10 µM, first compound 0.0316 µM
[38] = second compound 10 µM, first compound 0.1 µM
[39] = second compound 10 µM, first compound 0.316 µM
[40] = second compound 10 µM, first compound 1 µM
[41] = second compound 10 µM, first compound 3.16 µM
[42] = second compound 10 µM, first compound 10 µM
[43] = second compound 0.0316 µM, first compound 0.00316 µM
[44] = second compound 0.0316 µM, first compound 0.01 µM
[45] = second compound 0.1 µM, first compound 0.00316 µM
[46] = second compound 0.1 µM, first compound 0.01 µM
[47] = second compound 0.316 µM, first compound 0.00316 µM
[48] = second compound 0.316 µM, first compound 0.01 µM
[49] = second compound 1 µM, first compound 0.00316 µM
[50] = second compound 1 µM, first compound 0.01 µM
[51] = second compound 3.16 µM, first compound 0.00316 µM
[52] = second compound 3.16 µM, first compound 0.01 µM
[53] = second compound 10 µM, first compound 0.00316 µM
[54] = second compound 10 µM, first compound 0.01 µM
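Also: spheroids exposed to compounds for seven days before viability reading.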
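For viability, T/C in this document: 100% = DMSO vehicle control viability.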

IC50 [1]: 4680 nM
IC50 [2]: 4440 nM
IC50 [3]: 4350 nM
IC50 [4]: 3930 nM
IC50 [5]: 1500 nM
IC50 [6]: < 31.6 nM
Compound: CC1(C)CCC(CN2CCN(c3ccc(C(=O)NS(=O)(=O)c4ccc(NCC5CCOCC5)c([N+](=O)[O-])c4)c(Oc4cnc5[nH]ccc5c4)c3)CC2)=C(c2ccc(Cl)cc2)C1 + Cc1nc(NC(=O)N2CCCC2C(N)=O)sc1-c1ccnc(C(C)(C)C(F)(F)F)c1
viability, T/C [7]: 101%
viability, T/C [8]: 92.7%
viability, T/C [9]: 106%
viability, T/C [10]: 89.9%
viability, T/C [11]: 74.6%
viability, T/C [12]: 3.75%
viability, T/C [13]: 96.5%
viability, T/C [14]: 109%
viability, T/C [15]: 95.3%
viability, T/C [16]: 101%
viability, T/C [17]: 69.8%
viability, T/C [18]: 2.39%
viability, T/C [19]: 101%
viability, T/C [20]: 85.7%
viability, T/C [21]: 111%
viability, T/C [22]: 104%
viability, T/C [23]: 68.2%
viability, T/C [24]: 2.68%
viability, T/C [25]: 101%
viability, T/C [26]: 112%
viability, T/C [27]: 96.9%
viability, T/C [28]: 89.7%
viability, T/C [29]: 61.5%
viability, T/C [30]: 0.93%
viability, T/C [31]: 54.2%
viability, T/C [32]: 61.3%
viability, T/C [33]: 58.9%
viability, T/C [34]: 51.8%
viability, T/C [35]: 43%
viability, T/C [36]: 0.38%
viability, T/C [37]: 16.6%
viability, T/C [38]: 15.8%
viability, T/C [39]: 16.6%
viability, T/C [40]: 12.8%
viability, T/C [41]: 13.8%
viability, T/C [42]: 0.48%

IC50 [1]: > 10000 nM
IC50 [2]: > 10000 nM
IC50 [3]: > 10000 nM
IC50 [4]: > 10000 nM
IC50 [5]: > 10000 nM
IC50 [6]: < 31.6 nM
Compound: CC(Cn1ccc(-c2ccc(C#N)c(Cl)c2)n1)NC(=O)c1cc(C(C)O)[nH]n1 (stereo not given) + Cc1nc(NC(=O)N2CCCC2C(N)=O)sc1-c1ccnc(C(C)(C)C(F)(F)F)c1
viability, T/C [7]: 99.2%
viability, T/C [8]: 96.7%
viability, T/C [9]: 98.5%
viability, T/C [10]: 93%
viability, T/C [11]: 116%
viability, T/C [12]: 107%
viability, T/C [13]: 112%
viability, T/C [14]: 103%
viability, T/C [15]: 88.6%
viability, T/C [16]: 109%
viability, T/C [17]: 107%
viability, T/C [18]: 122%
viability, T/C [19]: 99.7%
viability, T/C [20]: 97.6%
viability, T/C [21]: 103%
viability, T/C [22]: 116%
viability, T/C [23]: 105%
viability, T/C [24]: 97.5%
viability, T/C [25]: 103%
viability, T/C [26]: 92.8%
viability, T/C [27]: 86%
viability, T/C [28]: 97.9%
viability, T/C [29]: 86.8%
viability, T/C [30]: 88.3%
viability, T/C [31]: 56.5%
viability, T/C [32]: 60.2%
viability, T/C [33]: 54.2%
viability, T/C [34]: 58.9%
viability, T/C [35]: 50.7%
viability, T/C [36]: 54.8%
viability, T/C [37]: 21.6%
viability, T/C [38]: 14.2%
viability, T/C [39]: 18.5%
viability, T/C [40]: 17.1%
viability, T/C [41]: 15.8%
viability, T/C [42]: 12.7%

IC50 (curve of compound): > 10000 nM
Compound: C[C@@H](NC(=O)c1ncnc(N)c1Cl)c1ncc(C(=O)Nc2cc(C(F)(F)F)c(Cl)cn2)s1
viability, T/C (compound 0.0316 µM): 95.7% [middle of 4 runs]
viability, T/C (compound 0.1 µM): 92.9% [middle of 4 runs]
viability, T/C (compound 0.316 µM): 92.3% [middle of 4 runs]
viability, T/C (compound 1 µM): 99.5% [middle of 4 runs]
viability, T/C (compound 3.16 µM): 105% [middle of 4 runs]
viability, T/C (compound 10 µM): 79.9% [middle of 4 runs]

IC50 [1]: > 1000 nM
IC50 [2]: > 1000 nM
IC50 [3]: > 1000 nM
IC50 [4]: > 1000 nM
IC50 [5]: > 1000 nM
IC50 [6]: > 1000 nM
Compound: CCN1CCN(Cc2ccc(Nc3ncc(F)c(-c4cc(F)c5nc(C)n(C(C)C)c5c4)n3)nc2)CC1 + CC(Nc1ncnc2nc[nH]c12)c1cc2cccc(Cl)c2c(=O)n1-c1ccccc1
viability, T/C [43]: 94.6%
viability, T/C [44]: 85.9%
viability, T/C [7]: 104%
viability, T/C [8]: 108%
viability, T/C [9]: 166%
viability, T/C [10]: 160%
viability, T/C [45]: 98.9%
viability, T/C [46]: 84%
viability, T/C [13]: 103%
viability, T/C [14]: 120%
viability, T/C [15]: 148%
viability, T/C [16]: 148%
viability, T/C [47]: 93.5%
viability, T/C [48]: 97.6%
viability, T/C [19]: 100%
viability, T/C [20]: 124%
viability, T/C [21]: 136%
viability, T/C [22]: 143%
viability, T/C [49]: 104%
viability, T/C [50]: 99.4%
viability, T/C [25]: 104%
viability, T/C [26]: 120%
viability, T/C [27]: 155%
viability, T/C [28]: 129%
viability, T/C [51]: 102%
viability, T/C [52]: 107%
viability, T/C [31]: 100%
viability, T/C [32]: 119%
viability, T/C [33]: 124%
viability, T/C [34]: 108%
viability, T/C [53]: 78.3%
viability, T/C [54]: 88%
viability, T/C [37]: 95.9%
viability, T/C [38]: 97.7%
viability, T/C [39]: 102%
viability, T/C [40]: 78.3%

Compound: CC(Nc1ccc2c(c1)OCCn1cc(N3C(=O)OCC3C(F)F)nc1-2)C(N)=O (stereo not given)
viability, T/C (compound 0.00316 µM): 99.1% [middle of 8 runs]
viability, T/C (compound 0.01 µM): 100% [middle of 8 runs]
viability, T/C (compound 0.1 µM): 98% [middle of 8 runs]
viability, T/C (compound 0.316 µM): 73.4% [middle of 8 runs]
viability, T/C (compound 1 µM): 50.1% [middle of 8 runs]

IC50 [1]: > 100 nM
IC50 [2]: > 100 nM
IC50 [3]: > 100 nM
IC50 [4]: > 100 nM
IC50 [5]: 19 nM
IC50 [6]: < 0.316 nM
Compound: CC(=O)c1c(C)c2cnc(Nc3ccc(N4CCNCC4)cn3)nc2n(C2CCCC2)c1=O + Cc1nc(NC(=O)N2CCCC2C(N)=O)sc1-c1ccnc(C(C)(C)C(F)(F)F)c1
viability, T/C (second compound 0.0316 µM, first compound 0.000316 µM): 96.5%
viability, T/C (second compound 0.0316 µM, first compound 0.001 µM): 95%
viability, T/C [43]: 96%
viability, T/C [44]: 114%
viability, T/C [7]: 123%
viability, T/C [8]: 138%
viability, T/C (second compound 0.1 µM, first compound 0.000316 µM): 97.7%
viability, T/C (second compound 0.1 µM, first compound 0.001 µM): 106%
viability, T/C [45]: 104%
viability, T/C [46]: 109%
viability, T/C [13]: 136%
viability, T/C [14]: 135%
viability, T/C (second compound 0.316 µM, first compound 0.000316 µM): 101%
viability, T/C (second compound 0.316 µM, first compound 0.001 µM): 113%
viability, T/C [47]: 109%
viability, T/C [48]: 101%
viability, T/C [19]: 124%
viability, T/C [20]: 126%
viability, T/C (second compound 1 µM, first compound 0.000316 µM): 104%
viability, T/C (second compound 1 µM, first compound 0.001 µM): 102%
viability, T/C [49]: 99.5%
viability, T/C [50]: 107%
viability, T/C [25]: 94.3%
viability, T/C [26]: 83.6%
viability, T/C (second compound 3.16 µM, first compound 0.000316 µM): 58.7%
viability, T/C (second compound 3.16 µM, first compound 0.001 µM): 53.6%
viability, T/C [51]: 59.2%
viability, T/C [52]: 53.3%
viability, T/C [31]: 46.1%
viability, T/C [32]: 37.4%
viability, T/C (second compound 10 µM, first compound 0.000316 µM): 20.9%
viability, T/C (second compound 10 µM, first compound 0.001 µM): 12.4%
viability, T/C [53]: 13.7%
viability, T/C [54]: 11.6%
viability, T/C [37]: 15.4%
viability, T/C [38]: 10.5%
